Measured values: US10165777B2, “Substituted pyrazolylpyrazole derivative and use of same as herbicide” (KYOYU AGRI CO., LTD., priority 2015, dated 2019)

Columns and labels:
Format in all cases: in vivo
Echinochloa crus-galli = experiment: Paddy herbicidal activity test; details: irrigated pot, treated at 3.5 leaf stage of Echinochloa crus-galli, 30 days
Description: (§1) 1. Paddy Herbicidal Activity Test Rice paddy soil was filled into a 1/10000 are pot followed by the addition of suitable amounts of water and chemical fertilizer, kneading, seeding with Echinochloa crus-galli, Monochoria vaginalis and Scirpus juncoides and maintaining in an irrigated state at a water depth of 3 cm. Wettable powders of Target Compound (I) shown in Table 1 prepared in compliance with the preparation examples were diluted with a suitable amount of water, rice plants in the 2.0 leaf stage were transplanted during 3.5 leaf stage of Echinochloa crus-galli, and treated by dropping in chemical in the prescribed amount per 10 are using a pipette. After treating for 30 days in a glass greenhouse at an average atmospheric temperature of 30° C., the herbicidal efficacy thereof was investigated. Evaluation of herbicidal efficacy was carried out by comparing growth inhibition rate (%) with an untreated group, while evaluation of phytotoxicity was carried out by comparing growth inhibition rate (%) with the state of a complete eradication group, and were evaluated at 11 levels indicated below.

Monochoria vaginalis = experiment: Paddy herbicidal activity test; details: irrigated pot, 30 days
Description: as §1

Scirpus juncoides = experiment: Paddy herbicidal activity test; details: irrigated pot, 30 days
Description: as §1

Oryza sativa = experiment: Paddy herbicidal activity test, phytotoxicity to transplanted rice; details: rice transplanted in 2.0 leaf stage, 30 days
Description: as §1

Amaranthus retroflexus [1] = experiment: Farming soil treatment test; details: soil surface spray prior to weed growth, 30 days
Description: (§2) Field soil was filled into a 1/6000 are pot followed by seeding with Digitaria ciliaris, Chenopodium album and Amaranthus retroflexus and covering with soil. Wettable powders of compounds of formula (I) shown in Table 1 prepared in compliance with the preparation examples were diluted with water to the prescribed amount of chemical and uniformly sprayed onto each soil surface layer using 100 liters of sprayed water per 10 are prior to weed growth following seeding. After treating for 30 days in a glass greenhouse at an average atmospheric temperature of 30° C., the herbicidal efficacy thereof was investigated. Evaluation of herbicidal efficacy was carried out in the same manner as the above-mentioned Test Example 1.

Chenopodium album [2] = experiment: Farming soil treatment test; details: soil surface spray prior to weed growth, 30 days
Description: as §2

Digitaria ciliaris [3] = experiment: Farming soil treatment test; details: soil surface spray prior to weed growth, 30 days
Description: as §2

Amaranthus retroflexus [4] = experiment: Weed foliar treatment test (Test 3, 1.0 to 2.0 leaf stage); details: foliar spray at 1.0 to 2.0 leaf stage of Digitaria ciliaris, 3 weeks
Description: (§3) Soil was filled into a 1/6000 are pot followed by seeding with Digitaria ciliaris, Chenopodium album and Amaranthus retroflexus, covering with soil, and cultivating in a glass greenhouse at an average atmospheric temperature of 25° C. Wettable powders of Target Compound (I) shown in Table 1 prepared in compliance with the preparation examples were diluted with water to the prescribed amount of chemical and uniformly sprayed onto the weeds using 150 liters of sprayed water per 10 are when Digitaria ciliaris had grown to the 1.0 to 2.0 leaf stage. After treating for 3 weeks in a glass greenhouse at an average atmospheric temperature of 25° C., the herbicidal efficacy thereof was investigated. Evaluation of herbicidal efficacy was carried out in the same manner as the above-mentioned Test Example 1.

Chenopodium album [5] = experiment: as above; details: foliar spray at 1.0 to 2.0 leaf stage of Digitaria ciliaris, 3 weeks
Description: as §3

Digitaria ciliaris [6] = experiment: as above; details: foliar spray at 1.0 to 2.0 leaf stage of Digitaria ciliaris, 3 weeks
Description: as §3

Digitaria ciliaris [7] = experiment: Weed foliar treatment test (Test 4, 4.0 to 5.0 leaf stage); details: 10 g a.i./10 a; foliar spray at 4.0 to 5.0 leaf stage of Digitaria ciliaris (plant height 10 cm to 15 cm); 20 days
Description: (§4) Field soil was filled into a 1/4500 are pot followed by seeding with Digitaria ciliaris and Galinsoga parviflora, covering with soil and cultivating in a glass greenhouse at an average atmospheric temperature of 25° C.
(§5) Wettable powders of Target Compound (I) shown in Table 1 prepared in compliance with the preparation examples were diluted with water to the prescribed amount of chemical and uniformly sprayed onto the weeds using 100 liters of sprayed water per 10 are when Digitaria ciliaris had grown to the 4.0 to 5.0 leaf stage (plant height: 10 cm to 15 cm).
(§6) After treating for 20 days in a glass greenhouse at an average atmospheric temperature of 25° C., the herbicidal efficacy thereof was investigated.
(§7) Evaluation of herbicidal efficacy was carried out in the same manner as the above-mentioned Test Example 1.

Galinsoga parviflora = experiment: as above; details: 10 g a.i./10 a; foliar spray at 4.0 to 5.0 leaf stage of Digitaria ciliaris; 20 days
Description: as §4, §5, §6, §7

COC=Nc1c(C#N)cnn1-c1nn2c(c1Cl)CCCC2 [Compound 33]
herbicidal efficacy, Echinochloa crus-galli (Echinochloa crus-galli; 1 g a.i./10 a): 9 (90% to less than 100%)
herbicidal efficacy, Echinochloa crus-galli (Echinochloa crus-galli; 5 g a.i./10 a): 9 (90% to less than 100%)
herbicidal efficacy, Monochoria vaginalis (Monochoria vaginalis; 1 g a.i./10 a): 9 (90% to less than 100%)
herbicidal efficacy, Monochoria vaginalis (Monochoria vaginalis; 5 g a.i./10 a): 10 (100%)
herbicidal efficacy, Scirpus juncoides (Scirpus juncoides; 1 g a.i./10 a): 9 (90% to less than 100%)
herbicidal efficacy, Scirpus juncoides (Scirpus juncoides; 5 g a.i./10 a): 9 (90% to less than 100%)
phytotoxicity, Oryza sativa (Oryza sativa; 1 g a.i./10 a): 0 (0% to less than 10% (growth inhibition rate))
phytotoxicity, Oryza sativa (Oryza sativa; 5 g a.i./10 a): 1 (10% to less than 20%)
herbicidal efficacy, Amaranthus retroflexus (Amaranthus retroflexus [1]; 5 g a.i./10 a): 9 (90% to less than 100%)
herbicidal efficacy, Amaranthus retroflexus (Amaranthus retroflexus [1]; 10 g a.i./10 a): 9 (90% to less than 100%)
herbicidal efficacy, Chenopodium album (Chenopodium album [2]; 5 g a.i./10 a): 9 (90% to less than 100%)
herbicidal efficacy, Chenopodium album (Chenopodium album [2]; 10 g a.i./10 a): 9 (90% to less than 100%)
herbicidal efficacy, Digitaria ciliaris (Digitaria ciliaris [3]; 5 g a.i./10 a): 9 (90% to less than 100%)
herbicidal efficacy, Digitaria ciliaris (Digitaria ciliaris [3]; 10 g a.i./10 a): 9 (90% to less than 100%)
herbicidal efficacy, Amaranthus retroflexus (Amaranthus retroflexus [4]; 5 g a.i./10 a): 9 (90% to less than 100%)
herbicidal efficacy, Amaranthus retroflexus (Amaranthus retroflexus [4]; 10 g a.i./10 a): 9 (90% to less than 100%)
herbicidal efficacy, Chenopodium album (Chenopodium album [5]; 5 g a.i./10 a): 10 (100%)
herbicidal efficacy, Chenopodium album (Chenopodium album [5]; 10 g a.i./10 a): 10 (100%)
herbicidal efficacy, Digitaria ciliaris (Digitaria ciliaris [6]; 5 g a.i./10 a): 9 (90% to less than 100%)
herbicidal efficacy, Digitaria ciliaris (Digitaria ciliaris [6]; 10 g a.i./10 a): 9 (90% to less than 100%)
herbicidal efficacy, Digitaria ciliaris (Digitaria ciliaris [7]): 9 (90% to less than 100%)
herbicidal efficacy, Galinsoga parviflora (Galinsoga parviflora): 10 (100%)
